Results taken from US20250032456A1, “USE OF L-ERGOTHIONEINE TO AMELIORATE AND PREVENT AGE-RELATED VITREOUS DEGENERATION” (NANJING NUTRABUILDING BIO-TECH CO., LTD., priority 2021, published 2025).

Tests used:
rabbits' vitreous gel [1] = test: Vitreous gel content by gel-liquid separation of rabbit vitreous samples; assay type: in vivo; conditions: 2 or 10 mg/kg/d by gavage for 7 months; compared with non-supplement group, ***p<0.001
Method: Fifteen young pigmented rabbits weighing 2.3-4.1 kg and aging 2.5-3 years were used in this experiment. At the onset of the investigation, each eye of every rabbit was examined by slit-lamp biomicroscopy and +60 diopter fundus lens through dilated pupils (2% atropine eye drops) to exclude any preexisting abnormalities. After slit-lamp examination, one drop of 0.5% proparacaine hydrochloride was applied for topic anesthesia, and then 0.1 ml of riboflavin (2×10^^−4 M) was injected through a Millipore filter unit into the central vitreous of both eyes, using a 30-gauge needle. All eyes were then irradiated with white light (1.06×10^15 photons sec-1 cm-2) generated by a carousel slide projector without a lens at a distance of 60 cm for 6 hours. During irradiation, the exposed eyes were frequently treated with topical balanced salt solution (BSS) to prevent corneal drying. Their eyes were examined by using slit-lamp biomicroscopy next day, to confirm if they have serious vitreous liquefaction. […] The weight of the vitreous gel was determined, and its percentage was calculated as follows: vitreous gel (%)=(separated vitreous gel wet wt (g)/initial vitreous wet wt (g))×100%.

rabbits' vitreous gel [2] = test: Slit-lamp biomicroscopy of vitreous structure in rabbits with riboflavin/white-light induced vitreous liquefaction; assay type: in vivo, rabbit; conditions: 2 or 10 mg/kg/d by gavage once daily for 7 months, especially in higher dose
Method: Fifteen young pigmented rabbits weighing 2.3-4.1 kg and aging 2.5-3 years were used in this experiment. At the onset of the investigation, each eye of every rabbit was examined by slit-lamp biomicroscopy and +60 diopter fundus lens through dilated pupils (2% atropine eye drops) to exclude any preexisting abnormalities. After slit-lamp examination, one drop of 0.5% proparacaine hydrochloride was applied for topic anesthesia, and then 0.1 ml of riboflavin (2×10^^−4 M) was injected through a Millipore filter unit into the central vitreous of both eyes, using a 30-gauge needle. All eyes were then irradiated with white light (1.06×10^15 photons sec-1 cm-2) generated by a carousel slide projector without a lens at a distance of 60 cm for 6 hours. During irradiation, the exposed eyes were frequently treated with topical balanced salt solution (BSS) to prevent corneal drying. Their eyes were examined by using slit-lamp biomicroscopy next day, to confirm if they have serious vitreous liquefaction. They were randomly divided into three groups: (1) non-supplement group (Con, n=5); (2) L-ergothioneine supplement group with low dosage (L-ergothioneine, 2 mg/kg/d, n=5); (3) L-ergothioneine supplement group with high dosage (L-ergothioneine, 10 mg/kg/d, n=5). Some […] were administered L-ergothioneine once daily by gavage in normal saline solution for 7 months. […]

[3] = system: Reactive oxygen species (ROS) of rabbits' lens; test: Reactive oxygen species quantified by fluorescence spectroscopy using 2',7'-dichlorofluorescein diacetate; assay type: in vivo, rabbit; conditions: 2 or 10 mg/kg/d by gavage for 7 months; compared with non-supplement group, ***p<0.001
Method: Fifteen young pigmented rabbits weighing 2.3-4.1 kg and aging 2.5-3 years were used in this experiment. At the onset of the investigation, each eye of every rabbit was examined by slit-lamp biomicroscopy and +60 diopter fundus lens through dilated pupils (2% atropine eye drops) to exclude any preexisting abnormalities. After slit-lamp examination, one drop of 0.5% proparacaine hydrochloride was applied for topic anesthesia, and then 0.1 ml of riboflavin (2×10^^−4 M) was injected through a Millipore filter unit into the central vitreous of both eyes, using a 30-gauge needle. All eyes were then irradiated with white light (1.06×10^15 photons sec-1 cm-2) generated by a carousel slide projector without a lens at a distance of 60 cm for 6 hours. During irradiation, the exposed eyes were frequently treated with topical balanced salt solution (BSS) to prevent corneal drying. […]
Antioxidant capacity of the lens was measured using an assay based on the ability of the sample to inhibit the oxidation of 2,2′-azino-di-[3-ethylbenzthiazoline sulfonate]+ (ABTS) by metmyoglobin. The amount of ABTS+ produced was measured in terms of the decrease in absorbance caused by the antioxidants in the sample. Reactive oxygen species (ROS) were quantified by fluorescence spectroscopy using 2′,7′-dichlorofluorescein diacetate.

C[N+](C)(C)[C@@H](Cc1c[nH]c(=S)[nH]1)C(=O)[O-] [L-ergothioneine]
vitreous gel content (%) of the rabbits' eye (FIG. 1) (rabbits' vitreous gel [1]): could alleviate vitreous depolymerization and liquefaction
rabbits' vitreous gel observed microscopically (slit-lamp biomicroscopy) (rabbits' vitreous gel [2]): significantly increased
ROS value of rabbits' lens (FIG. 2) [3]: could scavenge chronic ROS directly and radically
